Key:
Plasma [1] = test: Plasma concentration in dog at 3 mg/kg, iv; format: ADME, organism-based, Canis lupus familiaris; set-up: dose 3 mg/kg, route intravenous; settings: in vivo
[2] = AUC in dog at 20 mg/kg, po; format: ADME, organism-based, Canis lupus familiaris; set-up: dose 20 mg/kg, route oral; settings: plasma
[3] = target: Sodium channel protein type 9 subunit alpha (Homo sapiens, UniProt Q15858); test: Inhibition of human Nav1.7 by VIPR assay
[4] = target: Sodium channel protein type 5 subunit alpha (Homo sapiens, UniProt Q14524); test: Inhibition of Nav1.5 by VIPR assay
[5] = Half life in dog at 0.5 mg/kg, iv and 2 mg/kg, po; format: ADME, organism-based, Canis lupus familiaris; settings: in vivo
Canis familiaris [6] = test: Cardiotoxicity in anesthetized dog assessed as effect on QRS interval at 10 mg/kg, iv; format: toxicity, organism-based, Canis lupus familiaris; set-up: dose 10 mg/kg, route intravenous; settings: in vivo
[7] = Bioavailability in dog at 0.5 mg/kg, iv and 2 mg/kg, po; format: ADME, organism-based, Canis lupus familiaris; settings: in vivo
Canis familiaris [8] = test: Cardiotoxicity in anesthetized dog assessed as effect on heart rate at 3 mg/kg, iv; format: toxicity, organism-based, Canis lupus familiaris; set-up: dose 3 mg/kg, route intravenous; settings: in vivo
Canis familiaris [9] = test: Cardiotoxicity in anesthetized dog assessed as effect on QTc interval at 3 mg/kg, iv; format: toxicity, organism-based, Canis lupus familiaris; set-up: dose 3 mg/kg, route intravenous; settings: in vivo
Mus musculus [10] = test: Neurotoxicity in conscious mouse assessed as effect on behavior at 100 mg/kg after 24 hrs; format: toxicity, organism-based; set-up: dose 100 mg/kg; settings: in vivo
Plasma [11] = test: Plasma concentration in dog at 10 mg/kg, iv; format: ADME, organism-based, Canis lupus familiaris; set-up: dose 10 mg/kg, route intravenous; settings: in vivo
Rattus norvegicus [12] = test: Antiallodynic activity in rat spinal nerve ligation model of neuropathic pain assessed as reversal of allodynia at 3 mg/kg, po after 2 hrs; format: functional
Mus musculus [13] = test: Neurotoxicity in conscious mouse assessed as effect on CNS function at 100 mg/kg after 2 hrs; format: toxicity, organism-based, Central nervous system; set-up: dose 100 mg/kg; settings: in vivo
Mus musculus [14] = test: Neurotoxicity in conscious mouse assessed as effect on behavior at 100 mg/kg after 5 hrs; format: toxicity, organism-based; set-up: dose 100 mg/kg; settings: in vivo
[15] = AUC in dog at 60 mg/kg, po; format: ADME, organism-based, Canis lupus familiaris; set-up: dose 60 mg/kg, route oral; settings: plasma
[16] = Metabolic stability in dog liver microsomes assessed as compound remaining after 60 mins in presence of 10 uM substrate; format: ADME, Canis lupus familiaris, Microsome; settings: read-out: Stability
Canis familiaris [17] = test: Cardiotoxicity in anesthetized dog assessed as increase in PR interval at 10 mg/kg, iv; format: toxicity, organism-based, Canis lupus familiaris; set-up: dose 10 mg/kg, route intravenous; settings: in vivo
Canis familiaris [18] = test: Clearance in dog plasma at 0.5 mg/kg, iv and 2 mg/kg, po; format: ADME, organism-based, Canis lupus familiaris; settings: in vivo
Rattus norvegicus [19] = test: Neurotoxicity in rat assessed as effect on motor coordination at 30 mg/kg, po by rotarod test (reference value: 18%); format: toxicity, organism-based; set-up: dose 30 mg/kg, route oral; settings: in vivo
[20] = AUC in dog at 2 mg/kg, po; format: ADME, organism-based, Canis lupus familiaris; set-up: dose 2 mg/kg, route oral; settings: plasma
[21] = Half life in rat at 1 mg/kg, iv and 3 mg/kg, po; format: ADME, organism-based; settings: in vivo
hERG (KCNH2) [22] = target: T1, hERG (KCNH2) (Homo sapiens, UniProt Q12809); test: Inhibition of MK-0499 binding to human ERG at 10 uM; settings: probe MK-0499
[23] = Cmax in rat at 1 mg/kg, iv and 3 mg/kg, po; format: ADME, organism-based; settings: in vivo
Canis familiaris [24] = test: Cardiotoxicity in anesthetized dog assessed as effect on QRS interval at 1 mg/kg, iv; format: toxicity, organism-based, Canis lupus familiaris; set-up: dose 1 mg/kg, route intravenous; settings: in vivo
Rattus norvegicus [25] = test: Antiallodynic activity in rat spinal nerve ligation model of neuropathic pain assessed as reversal of allodynia at 10 mg/kg, po after 4 hrs; format: functional; settings: Rattus norvegicus, Spinal nerve, 4 h
Canis familiaris [26] = test: Cardiotoxicity in anesthetized dog assessed as effect on heart rate at 10 mg/kg, iv; format: toxicity, organism-based, Canis lupus familiaris; set-up: dose 10 mg/kg, route intravenous; settings: in vivo
hERG (KCNH2) [27] = target: T1, hERG (KCNH2); test: Inhibition of human ERG at 30 uM by electrophysiology assay
Mus musculus [28] = test: Neurotoxicity in conscious mouse assessed as effect on CNS function at 100 mg/kg after 5 hrs; format: toxicity, organism-based, Central nervous system; set-up: dose 100 mg/kg; settings: in vivo
Mus musculus [29] = test: Neurotoxicity in conscious mouse assessed as effect on motor activity at 100 mg/kg after 2 hrs; format: toxicity, organism-based; set-up: dose 100 mg/kg; settings: in vivo
[30] = Cmax in dog at 0.5 mg/kg, iv and 2 mg/kg, po; format: ADME, organism-based, Canis lupus familiaris; settings: in vivo
Canis familiaris [31] = test: Cardiotoxicity in anesthetized dog assessed as effect on mean arterial pressure at 1 mg/kg, iv; format: toxicity, organism-based, Canis lupus familiaris, Artery; set-up: dose 1 mg/kg, route intravenous; settings: in vivo
Canis familiaris [32] = test: Cardiotoxicity in anesthetized dog assessed as effect on heart rate at 1 mg/kg, iv; format: toxicity, organism-based, Canis lupus familiaris; set-up: dose 1 mg/kg, route intravenous; settings: in vivo
Cytochrome P450 2C9 = Cytochrome P450 2C9 (Homo sapiens, UniProt P11712); test: Inhibition of CYP2C9; format: ADME
Canis familiaris [33] = test: Cardiotoxicity in anesthetized dog assessed as effect on QTc interval at 1 mg/kg, iv; format: toxicity, organism-based, Canis lupus familiaris; set-up: dose 1 mg/kg, route intravenous; settings: in vivo
Mus musculus [34] = test: Neurotoxicity in conscious mouse assessed as effect on CNS function at 100 mg/kg after 24 hrs; format: toxicity, organism-based, Central nervous system; set-up: dose 100 mg/kg; settings: in vivo
Rattus norvegicus [35] = test: Antiallodynic activity in rat spinal nerve ligation model of neuropathic pain assessed as reversal of allodynia at 30 mg/kg, po after 2 hrs; format: functional
Rattus norvegicus [36] = test: Clearance in rat plasma at 1 mg/kg, iv and 3 mg/kg, po; format: ADME, organism-based; settings: in vivo
Mus musculus [37] = test: Neurotoxicity in conscious mouse assessed as effect on body temperature at 100 mg/kg after 2 hrs; format: toxicity, organism-based; set-up: dose 100 mg/kg; settings: in vivo
[38] = Cmax in dog at 60 mg/kg, po; format: ADME, organism-based, Canis lupus familiaris; set-up: dose 60 mg/kg, route oral; settings: in vivo
Canis familiaris [39] = test: Cardiotoxicity in anesthetized dog assessed as effect on mean arterial pressure at 3 mg/kg, iv; format: toxicity, organism-based, Canis lupus familiaris, Artery; set-up: dose 3 mg/kg, route intravenous; settings: in vivo
[40] = Plasma concentration in rat 30 to 100 mg/kg, po after 3.5 hrs; format: ADME, organism-based; set-up: dose 30-100 mg/kg, route oral
Cytochrome P450 3A4 = Cytochrome P450 3A4 (Homo sapiens, UniProt P08684); test: Inhibition of CYP3A4; format: ADME
Cytochrome P450 2D6 = Cytochrome P450 2D6 (Homo sapiens, UniProt P10635); test: Inhibition of CYP2D6; format: ADME
Rattus norvegicus [41] = test: Antiallodynic activity in rat spinal nerve ligation model of neuropathic pain assessed as reversal of allodynia at 10 mg/kg, po after 2 hrs; format: functional; settings: Rattus norvegicus, Spinal nerve, 2 h
Mus musculus [42] = test: Neurotoxicity in conscious mouse assessed as effect on body temperature at 100 mg/kg after 5 hrs; format: toxicity, organism-based; set-up: dose 100 mg/kg; settings: in vivo
[43] = target: T2, Nuclear receptor subfamily 1 group I member 2 (Homo sapiens, UniProt O75469); test: Induction of PXR
T2 sequence (O75469 whole entry): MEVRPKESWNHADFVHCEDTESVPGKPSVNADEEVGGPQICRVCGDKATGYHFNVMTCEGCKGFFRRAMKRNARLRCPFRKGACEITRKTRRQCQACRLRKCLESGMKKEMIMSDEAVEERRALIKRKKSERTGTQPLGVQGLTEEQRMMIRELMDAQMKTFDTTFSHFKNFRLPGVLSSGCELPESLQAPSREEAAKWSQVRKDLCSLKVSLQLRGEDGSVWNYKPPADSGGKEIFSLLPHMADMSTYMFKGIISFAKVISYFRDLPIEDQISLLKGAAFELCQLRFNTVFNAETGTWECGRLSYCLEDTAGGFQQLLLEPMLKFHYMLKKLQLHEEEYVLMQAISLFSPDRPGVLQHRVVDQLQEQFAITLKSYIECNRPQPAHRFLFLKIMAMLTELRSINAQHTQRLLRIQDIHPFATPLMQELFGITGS

Rattus norvegicus [44] = test: Antiallodynic activity in rat spinal nerve ligation model of neuropathic pain assessed as reversal of allodynia at 30 mg/kg, po after 4 hrs; format: functional
[45] = target: Cav1.2 (L-type calcium channel subunit alpha-1C) (Homo sapiens, UniProt Q13936); test: Inhibition of DLZ binding to Cav1.2 at 10 uM; settings: probe DLZ

T1 sequence (Q12809 whole entry): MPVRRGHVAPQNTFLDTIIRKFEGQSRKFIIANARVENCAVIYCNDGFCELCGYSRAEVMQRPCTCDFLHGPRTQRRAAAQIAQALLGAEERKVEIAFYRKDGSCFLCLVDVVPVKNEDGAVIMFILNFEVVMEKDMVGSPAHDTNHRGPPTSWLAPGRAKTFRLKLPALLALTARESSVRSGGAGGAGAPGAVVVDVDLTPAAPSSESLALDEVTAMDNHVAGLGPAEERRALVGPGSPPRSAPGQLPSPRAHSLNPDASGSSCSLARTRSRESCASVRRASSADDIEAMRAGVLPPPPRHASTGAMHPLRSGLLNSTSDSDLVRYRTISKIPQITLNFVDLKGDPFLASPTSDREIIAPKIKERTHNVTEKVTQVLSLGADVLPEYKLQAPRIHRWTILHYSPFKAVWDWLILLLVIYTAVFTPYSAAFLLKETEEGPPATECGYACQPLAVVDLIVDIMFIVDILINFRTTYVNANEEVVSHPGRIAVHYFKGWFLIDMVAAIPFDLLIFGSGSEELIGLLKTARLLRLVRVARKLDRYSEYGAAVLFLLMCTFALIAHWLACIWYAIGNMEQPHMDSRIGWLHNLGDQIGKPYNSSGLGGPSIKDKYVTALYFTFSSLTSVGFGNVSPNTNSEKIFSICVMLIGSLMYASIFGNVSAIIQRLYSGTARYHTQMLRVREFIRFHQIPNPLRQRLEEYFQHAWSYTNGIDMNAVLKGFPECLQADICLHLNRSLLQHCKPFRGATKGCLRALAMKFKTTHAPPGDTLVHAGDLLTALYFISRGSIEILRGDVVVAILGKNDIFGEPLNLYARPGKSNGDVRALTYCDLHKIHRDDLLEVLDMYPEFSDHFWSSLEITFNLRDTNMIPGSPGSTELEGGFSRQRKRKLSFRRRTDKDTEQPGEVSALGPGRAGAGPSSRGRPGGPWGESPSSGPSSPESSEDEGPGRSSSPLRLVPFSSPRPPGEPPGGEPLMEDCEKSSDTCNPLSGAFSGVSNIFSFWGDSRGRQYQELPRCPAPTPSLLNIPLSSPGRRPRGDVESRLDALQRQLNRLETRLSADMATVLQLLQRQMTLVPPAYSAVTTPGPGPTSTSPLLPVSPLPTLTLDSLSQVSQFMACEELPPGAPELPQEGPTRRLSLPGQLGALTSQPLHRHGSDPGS
Sequence of Cytochrome P450 2C9 (P11712 whole entry): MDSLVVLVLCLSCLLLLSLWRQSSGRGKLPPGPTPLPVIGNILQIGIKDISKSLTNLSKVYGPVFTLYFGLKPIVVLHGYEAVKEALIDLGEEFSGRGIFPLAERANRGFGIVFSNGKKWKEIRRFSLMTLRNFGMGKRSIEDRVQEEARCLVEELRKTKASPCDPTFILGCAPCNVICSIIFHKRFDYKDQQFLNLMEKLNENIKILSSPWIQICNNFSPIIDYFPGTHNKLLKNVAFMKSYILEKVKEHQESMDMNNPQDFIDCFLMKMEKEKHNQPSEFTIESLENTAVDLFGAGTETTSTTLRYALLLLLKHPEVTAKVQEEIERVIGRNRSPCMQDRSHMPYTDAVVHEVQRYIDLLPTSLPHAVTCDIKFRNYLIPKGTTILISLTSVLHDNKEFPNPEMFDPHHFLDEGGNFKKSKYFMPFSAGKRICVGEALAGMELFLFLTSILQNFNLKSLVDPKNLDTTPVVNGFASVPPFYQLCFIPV
Sequence of Cytochrome P450 3A4 (P08684 whole entry): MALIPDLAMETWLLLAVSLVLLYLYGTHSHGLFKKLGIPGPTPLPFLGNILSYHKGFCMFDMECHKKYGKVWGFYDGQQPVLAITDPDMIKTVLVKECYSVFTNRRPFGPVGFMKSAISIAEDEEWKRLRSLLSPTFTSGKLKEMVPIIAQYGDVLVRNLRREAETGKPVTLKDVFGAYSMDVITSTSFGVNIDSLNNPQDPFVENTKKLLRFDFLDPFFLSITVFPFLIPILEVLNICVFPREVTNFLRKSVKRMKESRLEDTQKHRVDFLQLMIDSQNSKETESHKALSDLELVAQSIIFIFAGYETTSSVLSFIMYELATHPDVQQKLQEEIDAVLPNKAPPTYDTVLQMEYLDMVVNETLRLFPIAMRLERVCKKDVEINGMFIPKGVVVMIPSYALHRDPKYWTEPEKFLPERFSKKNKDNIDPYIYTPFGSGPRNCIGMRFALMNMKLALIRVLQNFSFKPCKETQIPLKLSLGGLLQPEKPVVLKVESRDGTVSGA
Sequence of Sodium channel protein type 5 subunit alpha (Q14524 whole entry): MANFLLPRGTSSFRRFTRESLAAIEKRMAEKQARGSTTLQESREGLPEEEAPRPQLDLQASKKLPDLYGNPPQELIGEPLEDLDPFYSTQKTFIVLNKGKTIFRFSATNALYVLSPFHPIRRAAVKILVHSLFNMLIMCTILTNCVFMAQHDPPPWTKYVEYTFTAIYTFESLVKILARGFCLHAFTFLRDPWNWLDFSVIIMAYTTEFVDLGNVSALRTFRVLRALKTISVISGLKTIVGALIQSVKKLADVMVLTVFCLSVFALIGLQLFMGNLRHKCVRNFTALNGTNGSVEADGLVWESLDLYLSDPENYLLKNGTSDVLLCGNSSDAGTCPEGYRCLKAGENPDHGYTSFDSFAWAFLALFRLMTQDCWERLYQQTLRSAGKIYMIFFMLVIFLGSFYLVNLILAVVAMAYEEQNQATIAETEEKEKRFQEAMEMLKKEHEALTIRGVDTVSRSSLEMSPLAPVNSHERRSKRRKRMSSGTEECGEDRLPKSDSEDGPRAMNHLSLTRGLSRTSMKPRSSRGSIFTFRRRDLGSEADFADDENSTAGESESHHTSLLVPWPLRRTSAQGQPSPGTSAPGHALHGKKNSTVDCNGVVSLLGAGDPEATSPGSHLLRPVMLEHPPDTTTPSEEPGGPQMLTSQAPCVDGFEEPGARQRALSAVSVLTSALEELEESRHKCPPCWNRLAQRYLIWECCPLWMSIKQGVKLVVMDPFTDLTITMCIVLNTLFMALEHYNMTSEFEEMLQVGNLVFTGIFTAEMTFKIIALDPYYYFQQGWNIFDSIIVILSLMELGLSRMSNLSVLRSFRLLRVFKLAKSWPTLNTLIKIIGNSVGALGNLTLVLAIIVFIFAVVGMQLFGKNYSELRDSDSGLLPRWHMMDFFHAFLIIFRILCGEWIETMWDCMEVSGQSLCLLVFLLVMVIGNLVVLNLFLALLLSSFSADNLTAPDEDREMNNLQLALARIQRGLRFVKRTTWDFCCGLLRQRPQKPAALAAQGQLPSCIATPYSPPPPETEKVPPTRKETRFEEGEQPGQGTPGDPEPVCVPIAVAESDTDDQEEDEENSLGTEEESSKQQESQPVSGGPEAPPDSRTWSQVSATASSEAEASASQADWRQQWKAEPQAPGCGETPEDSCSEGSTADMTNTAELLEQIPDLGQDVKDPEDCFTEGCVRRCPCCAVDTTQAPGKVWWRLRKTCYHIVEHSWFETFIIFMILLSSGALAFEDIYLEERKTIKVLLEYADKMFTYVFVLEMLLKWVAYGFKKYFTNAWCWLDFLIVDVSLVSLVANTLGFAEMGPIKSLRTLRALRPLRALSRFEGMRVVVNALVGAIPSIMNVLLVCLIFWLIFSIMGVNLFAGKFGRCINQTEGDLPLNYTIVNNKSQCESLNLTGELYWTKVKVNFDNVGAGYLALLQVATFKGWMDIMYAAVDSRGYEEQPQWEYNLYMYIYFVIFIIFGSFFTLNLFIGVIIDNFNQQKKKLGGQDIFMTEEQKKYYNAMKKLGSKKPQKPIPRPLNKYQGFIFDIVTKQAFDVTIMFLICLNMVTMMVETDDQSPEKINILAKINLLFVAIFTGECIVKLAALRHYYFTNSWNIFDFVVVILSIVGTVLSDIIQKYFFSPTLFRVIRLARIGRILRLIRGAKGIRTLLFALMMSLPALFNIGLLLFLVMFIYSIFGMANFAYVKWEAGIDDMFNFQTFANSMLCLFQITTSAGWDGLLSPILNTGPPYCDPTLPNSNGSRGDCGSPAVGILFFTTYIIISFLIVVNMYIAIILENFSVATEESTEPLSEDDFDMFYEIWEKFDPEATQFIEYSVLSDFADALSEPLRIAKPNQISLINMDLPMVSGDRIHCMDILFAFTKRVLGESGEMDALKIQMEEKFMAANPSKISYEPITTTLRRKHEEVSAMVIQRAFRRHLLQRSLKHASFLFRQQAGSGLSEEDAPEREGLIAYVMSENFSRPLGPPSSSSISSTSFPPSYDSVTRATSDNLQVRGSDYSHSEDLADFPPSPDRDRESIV
Sequence of Cytochrome P450 2D6 (P10635 whole entry): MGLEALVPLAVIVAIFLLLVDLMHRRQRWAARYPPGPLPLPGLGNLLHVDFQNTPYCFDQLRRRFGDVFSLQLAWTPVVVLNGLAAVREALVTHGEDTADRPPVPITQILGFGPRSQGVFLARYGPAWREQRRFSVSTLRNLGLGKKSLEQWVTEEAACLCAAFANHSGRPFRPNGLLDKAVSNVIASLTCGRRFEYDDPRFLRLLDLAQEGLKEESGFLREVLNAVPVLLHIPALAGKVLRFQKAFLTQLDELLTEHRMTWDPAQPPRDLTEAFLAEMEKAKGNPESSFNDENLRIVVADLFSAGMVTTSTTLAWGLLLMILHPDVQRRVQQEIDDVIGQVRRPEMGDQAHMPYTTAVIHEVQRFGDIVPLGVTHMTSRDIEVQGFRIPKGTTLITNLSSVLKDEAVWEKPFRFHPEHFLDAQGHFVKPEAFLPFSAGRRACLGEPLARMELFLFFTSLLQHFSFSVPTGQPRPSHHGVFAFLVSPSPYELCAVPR

- concentration (Plasma [1]): 16.2 µM
- AUC [2]: 372 µM·h
- IC50 [3]: 810 nM
- half-life [5]: 720 min
- bioavailability [7]: 33%
- concentration (Plasma [11]): 78.2 µM
- AUC [15]: 650 µM·h
- remaining at 1 h, 10 uM [16]: > 99%
- clearance (Canis familiaris [18]): 0.5 mL/min/kg
- AUC [20]: 50 µM·h
- half-life [21]: 186 min
- Cmax [23]: 2640 nM
- Cmax [30]: 2920 nM
- IC50 (Cytochrome P450 2C9): 20.3 µM
- clearance (Rattus norvegicus [36]): 5 mL/min/kg
- Cmax [38]: 24.4 µM
- concentration at 3.5 h [40]: 31.6 µM
- IC50 (Cytochrome P450 3A4): > 100 µM
- IC50 (Cytochrome P450 2D6): > 100 µM
- IC50 [43]: > 25 µM
SMILES: NC(=O)c1cc(C(N)=O)n(-c2cccc(-c3cc(C(F)(F)F)ccc3C(F)(F)F)c2)n1
- IC50 [4]: 1320 nM
- Activity (Canis familiaris [6]): Non-toxic
- Activity (Canis familiaris [8]): Non-toxic
- Activity (Canis familiaris [9]): Non-toxic
- Activity (Mus musculus [10]): Non-toxic
- inhibition in vivo at 3 mg/kg (Rattus norvegicus [12]): 18%
- Activity (Mus musculus [13]): Non-toxic
- Activity (Mus musculus [14]): Non-toxic
- Activity (Canis familiaris [17]): 6%
- Activity (Rattus norvegicus [19]): -2%
- inhibition at 10 µM (hERG (KCNH2) [22]): 17%
- Activity (Canis familiaris [24]): Non-toxic
- inhibition in vivo at 10 mg/kg (Rattus norvegicus [25]): 34%
- Activity (Canis familiaris [26]): Non-toxic
- inhibition at 30 µM (hERG (KCNH2) [27]): 15%
- Activity (Mus musculus [28]): Non-toxic
- Activity (Mus musculus [29]): Non-toxic
- Activity (Canis familiaris [31]): Non-toxic
- Activity (Canis familiaris [32]): Non-toxic
- Activity (Canis familiaris [33]): Non-toxic
- Activity (Mus musculus [34]): Non-toxic
- inhibition in vivo at 30 mg/kg (Rattus norvegicus [35]): 56%
- Activity (Mus musculus [37]): Non-toxic
- Activity (Canis familiaris [39]): Non-toxic
- inhibition in vivo at 10 mg/kg (Rattus norvegicus [41]): 44%
- Activity (Mus musculus [42]): Non-toxic
- inhibition in vivo at 30 mg/kg (Rattus norvegicus [44]): 59%
- inhibition at 10 µM [45]: 0%

Reference: ChEMBL document CHEMBL1629455, “Discovery of a novel class of biphenyl pyrazole sodium channel blockers for treatment of neuropathic pain” (Bioorg Med Chem Lett, 2010)
